# Experimental data: PMC4705222, “Identification of a Catalase-Phenol Oxidase in Betalain Biosynthesis in Red Amaranth (Amaranthus cruentus)” (Frontiers in Plant Science, 2016)
# T1: AcCATPO (Amaranthus cruentus, UniProt A0A2Z0PTH5)
# T1 sequence (A0A2Z0PTH5 1-492): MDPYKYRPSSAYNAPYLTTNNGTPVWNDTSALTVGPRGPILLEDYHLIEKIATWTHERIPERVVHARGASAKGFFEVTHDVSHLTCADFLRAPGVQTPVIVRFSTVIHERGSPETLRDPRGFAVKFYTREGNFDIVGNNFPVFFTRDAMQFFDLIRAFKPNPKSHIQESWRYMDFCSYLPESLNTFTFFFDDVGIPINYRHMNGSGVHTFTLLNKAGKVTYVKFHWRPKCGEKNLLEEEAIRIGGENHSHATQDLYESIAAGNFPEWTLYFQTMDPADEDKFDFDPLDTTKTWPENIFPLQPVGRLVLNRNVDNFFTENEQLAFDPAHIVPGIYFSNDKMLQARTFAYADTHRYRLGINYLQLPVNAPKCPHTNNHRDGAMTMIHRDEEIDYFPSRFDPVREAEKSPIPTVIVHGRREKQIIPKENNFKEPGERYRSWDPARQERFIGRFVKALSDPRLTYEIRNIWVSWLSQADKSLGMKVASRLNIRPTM
# B1: AcCATPO (Amaranthus cruentus) (protein)
# chain: T1 sequence (A0A2Z0PTH5 1-492)
# notes: native, purified from red-violet leaves by native-PAGE gel slice; homotrimer ca. 170 kDa, subunit ca. 58 kDa; cDNA encodes 492 residues; peptides GPILLEDYHLIEK, APGVQTPVIVR, FSTVIHER, ENNFKEPGER, TFAYADTHR
# Legend:
# AcCATPO [1] = molecular target: T1, AcCATPO; test: catalase activity, H2O2 decrease at […] nm; assay type: biochemical; details: not significant, H2O2 substrate (14 mM in standard assay), pH 7.0, 20 °C
# AcCATPO [2] = molecular target: T1, AcCATPO; test: monophenolase activity toward L-tyrosine, absorbance […] nm; assay type: biochemical; details: L-tyrosine substrate, 0.057 mM L-DOPA cofactor, no added CuSO4, chelator
# AcCATPO [3] = molecular target: T1, AcCATPO; test: diphenolase activity toward L-DOPA, absorbance […] nm and in-gel staining; assay type: biochemical; details: 1 mM L-DOPA substrate, pH 8.0, 60 °C, chelator
# AcCATPO [4] = molecular target: T1, AcCATPO; test: monophenolase activity toward L-tyrosine, absorbance […] nm; assay type: biochemical; details: L-tyrosine substrate, 0.057 mM L-DOPA cofactor, no added CuSO4
# AcCATPO [5] = molecular target: T1, AcCATPO; test: catalase activity, H2O2 decrease at […] nm; assay type: biochemical; details: read-out: % inhibition at 1 mM
# AcCATPO [6] = molecular target: T1, AcCATPO; assay type: biochemical
# AcCATPO [7] = molecular target: T1, AcCATPO; test: monophenolase activity toward L-tyrosine, absorbance […] nm; assay type: biochemical; details: activation, not inhibition, L-tyrosine substrate, 0.057 mM L-DOPA cofactor, no added CuSO4
# AcCATPO [8] = molecular target: T1, AcCATPO; test: diphenolase activity toward L-DOPA, absorbance […] nm and in-gel staining; assay type: biochemical; details: activation, not inhibition, 1 mM L-DOPA substrate, pH 8.0, 60 °C
# purified protein [9] = substrate: N[C@@H](Cc1ccc(O)c(O)c1)C(=O)O; test: purified protein; assay type: biochemical, Amaranthus cruentus; details: diphenolase, pH 8.0, 60 °C
# purified protein [10] = substrate: N[C@@H](Cc1ccc(O)cc1)C(=O)O; test: purified protein; assay type: biochemical, Amaranthus cruentus; details: monophenolase, 0.057 mM L-DOPA as cofactor, pH 8.0, 60 °C
molecule,measurement,setting,value
O=C(O)c1ccccc1O [salicylic acid],% decrease at 1 mM,AcCATPO [1],< 25%
CCN(CC)C(=S)S [sodium diethyldithiocarbamate],% loss of activity at 1 mM,AcCATPO [2],~ 80%
same,% loss of activity at 1 mM,AcCATPO [3],~ 99%
O=c1cc(CO)occ1O [kojic acid],% decrease at 1 mM,AcCATPO [4],~ 15%
NNC(=O)c1ccncc1 [isoniazid],inhibition at 1000 µM,AcCATPO [5],~90%
NC(=S)Nc1ccccc1 [phenylthiocarbamide],% inhibition at 1 mM,AcCATPO [6],"all inhibitors except tropolone, had a significantly inhibitory effect on the monophenolase activity"
O=c1cccccc1O [tropolone],% increase of activity at 1 mM,AcCATPO [7],~ 25%
same,% increase of activity at 1 mM,AcCATPO [8],~ 55%
B1,Km,purified protein [9],600 µM
same,Vmax,purified protein [9],0.75 µM/min
same,kcat,purified protein [9],0.36 s⁻¹
same,kcat/Km,purified protein [9],600 M⁻¹ s⁻¹
same,Km,purified protein [10],200 µM
same,Vmax,purified protein [10],0.079 µM/min
same,kcat,purified protein [10],0.04 s⁻¹
same,kcat/Km,purified protein [10],200 M⁻¹ s⁻¹
